For series [1] the following is noted: titer based on the toxicity of 2,3,7,8-TCDD (receptor binding, allylhydrocarbon hydroxylase inducing ability, toxic effect); cited from earlier work.
The test system of series [2] is anti-dioxin monoclonal antibody. The conditions noted are these: Catalog No. PDI-Dioxin-30, IgG1, host mouse; cited from earlier work.
For series [3] the test system is unchanged. Briefly: surface plasmon resonance (BIAcore 2000) competitive method with HRP-2,3,7,8-TCDD on an antibody-fixed CM5 sensor chip. The format is binding, mouse. Particulars: average of the four cells. The source says: An anti-dioxin monoclonal antibody was fixed to a sensor chip by the aminocoupling method using BIAcore (registered trademark) 2000.
As a sensor chip to which the antibody was not fixed, a sensor chip (commercial name CM5) available from BIAcore company was used. The metallic thin film 14 is composed of gold, and its thickness is 50 nm. The fixing body 18 is carboxymethyldextran having no crosslinked structure, and its thickness is 100 nm.
As the anti-dioxin monoclonal antibody, Catalog No. PDI-Dioxin-30 (Research Diagnostics, Inc., Pleasant Hill Road, Flanders, New Jersey, USA) was used. As the host, mouse was used. This anti-dioxin monoclonal antibody contains 10 mg IgG1 in 3.125 ml (3.2 mg/ml), 0.2M PBS, pH 7.2, and 0.05% sodium azide.
First, BIAcore's sensor chip CM5 was set in BIAcore (registered trademark) 2000. Then, a mixed solution of N-ethyl-N'-(3-dimethylaminopropyl)carbodiimide hydrochloride (EDC) and N-hydroxysuccinimide (NHS) was injected into BIAcore (registered trademark) 2000 to activate the sensor chip CM5.
The anti-dioxin monoclonal antibody (1,000 ppm) was centrifuged to replace the solvent. Finally, the antibody was dissolved in 100 µl of 10 mM acetic acid environment solution. The resulting solution in an amount of 50 µl was injected into BIAcore (registered trademark) 2000 at a rate of 5 µl/min to fix the anti-dioxin monoclonal antibody onto the surface of the sensor chip. […]
Using the sensor chip obtained in Example 1, dioxins were detected by the competitive method. […]
The diluted 2,3,7,8-TCDD solution of each concentration was mixed with 10 ppm HRP-2,3,7,8-TCDD in BIAcore. […] A change in the disappearance angle due to the binding of 2,3,7,8-TCDD itself to the antibody is too small to be measured by SPR. […]
Then, the mixture was injected (3 µl/min) into BIAcore 2000, and an SPR signal was measured to determined the disappearance angle. That is, polarized light with a wavelength of 760 nm was projected, and the intensity of reflected light was measured, with the angle of incidence of incident light being varied. […]

Bounds are passed on as bounds.

As for `Clc1cc2c(c(Cl)c1Cl)Oc1c(Cl)c(Cl)c(Cl)c(Cl)c1O2` [1,2,3,4,6,7,8-Hepta CDD], the TEF in series [1] is listed as 0.01.

On to `Clc1cc2c(oc3c(Cl)c(Cl)c(Cl)c(Cl)c32)c(Cl)c1Cl` [1,2,3,4,6,7,8-Hepta CDF], for which the TEF in series [1] was 0.1.

Regarding `Clc1cc2oc3c(Cl)c(Cl)c(Cl)c(Cl)c3c2c(Cl)c1Cl` [1,2,3,4,7,8,9-Hepta CDF], the TEF in series [1] is on record as 0.1.

For the compound `Clc1cc2c(cc1Cl)Oc1c(Cl)c(Cl)c(Cl)c(Cl)c1O2` [1,2,3,4,7,8-Hexa CDD], in series [1], the TEF is 0.1.

For `Clc1cc2oc3c(Cl)c(Cl)c(Cl)c(Cl)c3c2cc1Cl` [1,2,3,4,7,8-Hexa CDF], in series [1], the TEF was 0.1.

Take `Clc1cc2c(c(Cl)c1Cl)Oc1cc(Cl)c(Cl)c(Cl)c1O2` [1,2,3,6,7,8-Hexa CDD]: the TEF in series [1] is 0.1.

For `Clc1cc2c(oc3cc(Cl)c(Cl)c(Cl)c32)c(Cl)c1Cl` [1,2,3,6,7,8-Hexa CDF], the TEF in series [1] is reported as 0.1.

In the case of `Clc1cc2c(c(Cl)c1Cl)Oc1c(cc(Cl)c(Cl)c1Cl)O2` [1,2,3,7,8,9-Hexa CDD], the TEF in series [1] is 0.1.

`Clc1cc2oc3cc(Cl)c(Cl)c(Cl)c3c2c(Cl)c1Cl` [1,2,3,7,8,9-Hexa CDF]: the TEF in series [1] is listed as 0.1.

As to `Clc1cc2c(cc1Cl)Oc1c(cc(Cl)c(Cl)c1Cl)O2` [1,2,3,7,8-Penta CDD], in series [1], the TEF is reported as 0.5.

Consider `Clc1cc2oc3cc(Cl)c(Cl)c(Cl)c3c2cc1Cl` [1,2,3,7,8-Penta CDF], for which the TEF in series [1] is given as 0.05.

In the case of `Clc1cc(Cl)c2c(c1Cl)Oc1ccccc1O2` [1,2,4-TriCDD], the “reactivity of the anti-dioxin monoclonal antibody” value (“reactivity” for short) in series [2] is recorded as under 1.0%.

Consider `Clc1cc(Cl)c2c(c1)Oc1c(Cl)cc(Cl)cc1O2` [1,3,6,8-Tetra CDD], for which the TEF in series [1] is reported as 0.

`Clc1cc(Cl)c2c(c1)oc1c(Cl)cc(Cl)cc12` [1,3,6,8-Tetra CDF]: in series [1], the TEF was 0.

`Clc1cc(Cl)c2c(c1)Oc1cc(Cl)cc(Cl)c1O2` [1,3,7,9-Tetra CDD]: in series [1], the TEF is recorded as 0.

For `Clc1cc2c(oc3c(Cl)c(Cl)c(Cl)cc32)c(Cl)c1Cl` [2,3,4,6,7,8-Hexa CDF], the TEF in series [1] was 0.1.

Regarding `Clc1cc2c(cc1Cl)Oc1cc(Cl)c(Cl)cc1O2` [2,3,7,8-TCDD], the figures for the “ΔRU Average” value in series [3] (Dioxin concentration 3.8 ppb), in series [3] (Dioxin concentration 7.6ppb) and in series [3] (Dioxin concentration 76 ppb) were 234.75 RU, 197.9 RU and 135.9 RU, respectively. For the same compound, the TEF in series [1] was 1. The “reactivity” value in series [2] was 100%.

Turning to `Clc1cc2oc3cc(Cl)c(Cl)cc3c2cc1Cl` [2,3,7,8-TCDF], in series [1], the TEF was 0.1. The “reactivity” value in series [2] was 4.6%.

Turning to `Clc1ccc2c(c1)Oc1cc(Cl)c(Cl)cc1O2` [2,3,7-TriCDD], in series [2], the “reactivity” value was under 20%.

With `Clc1cc2c(cc1Cl)Oc1ccccc1O2` [2,3-DCDD], in series [2], the “reactivity” value is recorded as 2.2%.

On to `Clc1ccc2c(c1)Oc1ccccc1O2` [2-CDD], for which, in series [2], the “reactivity” value is on record as 0.3%.

Take `Clc1c(Cl)c(Cl)c2c(c1Cl)Oc1c(Cl)c(Cl)c(Cl)c(Cl)c1O2` [Octa CDD]: the TEF in series [1] is listed as 0.001.

Take `Clc1c(Cl)c(Cl)c2c(oc3c(Cl)c(Cl)c(Cl)c(Cl)c32)c1Cl` [Octa CDF]: the TEF in series [1] is listed as 0.001.
